The values that follow come from ChEMBL document CHEMBL1201862, “PubChem BioAssay data set” (2004).

Among the test systems are HCT-116; SK-OV-3; OVCAR-3; A549; OVCAR-5; SF-268; SN12C; HT-29; KM12; HOP-62; CAKI-1; EKVX; COLO 205; HOP-92; UACC-62; SK-MEL-2; MOLT-4; U-251; IGROV-1; SF-295.
What all share (test): growth of human tumour cells (NCI), 48 h

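Step 1: Grow cells in 96-well plates. Step 2: Expose to compound for 48 hours at 5 concentrations. Step 3: Interpolate endpoints linearly; if unreached, use highest concentration. At the GI50, growth is halved.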 Active and inactive are the calls of the source. Cut-off read from the data, not from the text of the source: active = GI50 up to about 1.1 µM and inactive = higher. A value given as a limit tells only on which side of the number the result lay.

On to `CN(C)CCNC(=O)c1cccc2[nH]c(-c3ccc(Cl)cc3)nc12`, for which the GI50 in the experiment on HCT-116 was 3.28 µM (inactive); in the experiment with SK-OV-3 it was 11.4 µM (inactive); in the experiment on OVCAR-3 it was 10.2 µM (inactive); in the experiment with A549 it was 3.66 µM (inactive); with OVCAR-5 it was 10.3 µM (inactive); with SF-268, 12.7 µM (inactive). The GI50 was 5.07 µM (inactive) in the experiment on SN12C; 4.24 µM (inactive) with HT-29; 6.95 µM (inactive) in the experiment with KM12; 8.77 µM (inactive) in the experiment on HOP-62; 2.82 µM (inactive) with CAKI-1; 12.4 µM (inactive) in the experiment with EKVX. For the same molecule, the GI50 in the experiment on COLO 205 is 2.97 µM (inactive); with HOP-92, 5.25 µM (inactive); in the experiment on UACC-62 it was 5.53 µM (inactive); in the experiment on SK-MEL-2, 13.4 µM (inactive); in the experiment on MOLT-4, 2.03 µM (inactive); in the experiment with U-251, 5.42 µM (inactive). Also, the GI50 with IGROV-1 is 7.35 µM (inactive); in the experiment on SF-295, 8.18 µM (inactive).

`C=CCOC1=C(OCC=C)C(C2COC(C)(C)O2)OC1=O` (stereo not given): the GI50 in the experiment on HCT-116, in the experiment with SK-OV-3, with OVCAR-3, with A549, with OVCAR-5 and in the experiment on SF-268 was > 100 µM (inactive) throughout. Further, the GI50 in the experiment on SN12C was > 100 µM (inactive); in the experiment with HT-29, > 100 µM (inactive); with KM12 it was > 100 µM (inactive); with HOP-62, > 100 µM (inactive); in the experiment with CAKI-1, 18.7 µM (inactive); in the experiment with EKVX, > 100 µM (inactive). Further, the GI50 is > 100 µM (inactive) in the experiment with COLO 205; 14.8 µM (inactive) in the experiment with HOP-92; > 100 µM (inactive) in the experiment on UACC-62; > 100 µM (inactive) in the experiment on SK-MEL-2; > 100 µM (inactive) with MOLT-4; > 100 µM (inactive) with U-251. In addition, the GI50 with IGROV-1 and in the experiment with SF-295 was > 100 µM (inactive) each time.

For `O=C1C(Cl)=C(c2ccc([N+](=O)[O-])cc2)C(=O)c2c(O)cccc21`, the GI50 in the experiment with HCT-116 is 1.06 µM (active); with SK-OV-3 it was 2.87 µM (inactive); in the experiment on OVCAR-3, 1.3 µM (inactive); in the experiment on A549 it was 3.28 µM (inactive); in the experiment on OVCAR-5, 2.24 µM (inactive); in the experiment on SF-268, 0.843 µM (active). The GI50 with SN12C was 2.96 µM (inactive); in the experiment with HT-29, 2.72 µM (inactive); with KM12, 1.11 µM (active); in the experiment on HOP-62, 4.17 µM (inactive); in the experiment on CAKI-1 it was 1.29 µM (inactive); with EKVX it was 3.35 µM (inactive). In addition, the GI50 with COLO 205 is 1.82 µM (inactive); in the experiment on HOP-92, 1.44 µM (inactive); in the experiment with UACC-62, 0.508 µM (active); in the experiment with SK-MEL-2, 0.713 µM (active); in the experiment on MOLT-4, 2.56 µM (inactive); with U-251, 0.8 µM (active). Also, the results for the GI50 with IGROV-1 and in the experiment with SF-295 were 2.39 µM (inactive) and 2.7 µM (inactive), respectively.

For the molecule `Cn1c(=O)c2nc(N3CCOCC3)cnc2n(C)c1=O`, the GI50 in the experiment with HCT-116, in the experiment with SK-OV-3, with OVCAR-3, in the experiment on A549, in the experiment on OVCAR-5 and with SF-268 was > 100 µM (inactive) throughout. For the same molecule, the GI50 with SN12C, in the experiment on HT-29, in the experiment on KM12, with HOP-62, in the experiment with CAKI-1 and in the experiment with EKVX was > 100 µM (inactive) throughout. Moreover, the GI50 in the experiment on COLO 205, with HOP-92, with UACC-62, with SK-MEL-2, with MOLT-4 and in the experiment on U-251 was > 100 µM (inactive) each time. The GI50 with IGROV-1 and with SF-295 was > 100 µM (inactive) in each case.

For the molecule `COc1cc(C2(c3ncc[nH]3)SSSCC2O)ccc1O` (stereo not given), the GI50 with HCT-116 is 32.6 µM (inactive); with SK-OV-3 it was 66.4 µM (inactive); with OVCAR-3, 32.2 µM (inactive); in the experiment on A549, > 57.4 µM (inactive); in the experiment on OVCAR-5, > 100 µM (inactive); with SF-268, 15.8 µM (inactive). In addition, the GI50 with SN12C is 47.8 µM (inactive); in the experiment with HT-29, 38 µM (inactive); with KM12, > 100 µM (inactive); in the experiment with HOP-62, > 66.4 µM (inactive); with CAKI-1 it was 86.1 µM (inactive); with EKVX it was 94 µM (inactive). In addition, the GI50 with COLO 205 is 25.6 µM (inactive); in the experiment on HOP-92 it was 6.25 µM (inactive); with UACC-62 it was 22.6 µM (inactive); in the experiment with SK-MEL-2 it was > 100 µM (inactive); in the experiment with MOLT-4, 16.5 µM (inactive); in the experiment with U-251, > 56.2 µM (inactive). Further, the GI50 with IGROV-1 is 47.2 µM (inactive); in the experiment with SF-295 it was 39.1 µM (inactive).

For the molecule `CC(C)C1NC(=O)CC(c2ccccc2)N(N=O)C1c1ccccc1` (stereo not given), the GI50 was > 100 µM (inactive) with HCT-116; > 61.1 µM (inactive) in the experiment with SK-OV-3; > 68.9 µM (inactive) in the experiment with OVCAR-3; > 100 µM (inactive) in the experiment with A549; > 100 µM (inactive) in the experiment with OVCAR-5; > 100 µM (inactive) with SF-268. For the same molecule, the GI50 in the experiment on SN12C, in the experiment with HT-29, with KM12, in the experiment with HOP-62, with CAKI-1 and in the experiment with EKVX was > 100 µM (inactive) throughout. In addition, the GI50 in the experiment with COLO 205 is > 100 µM (inactive); in the experiment on HOP-92 it was > 51.3 µM (inactive); in the experiment on UACC-62, > 100 µM (inactive); with SK-MEL-2, > 100 µM (inactive); in the experiment with MOLT-4, > 100 µM (inactive); with U-251, > 100 µM (inactive). Besides, the GI50 with IGROV-1 and with SF-295 was > 100 µM (inactive) throughout.

For `O=C1C2=C(C3=NCCc4c[nH]c1c43)c1c(Br)cc(Br)cc1CCN2`, the GI50 was 1.84 µM (inactive) in the experiment with HCT-116; 12.2 µM (inactive) in the experiment on SK-OV-3; 2.77 µM (inactive) in the experiment with OVCAR-3; 2.73 µM (inactive) in the experiment with A549; 4.19 µM (inactive) in the experiment on OVCAR-5; 2.59 µM (inactive) in the experiment with SF-268. Besides, the GI50 is 2.28 µM (inactive) with SN12C; 2.45 µM (inactive) in the experiment on HT-29; 2.56 µM (inactive) with KM12; 14.6 µM (inactive) with HOP-62; 13.4 µM (inactive) with CAKI-1; 3.01 µM (inactive) in the experiment on EKVX. The GI50 in the experiment on COLO 205 is 1.29 µM (inactive); in the experiment with HOP-92, 9.18 µM (inactive); in the experiment with UACC-62, 1.14 µM (inactive); in the experiment with SK-MEL-2, 3.33 µM (inactive); in the experiment on MOLT-4, 1.35 µM (inactive); in the experiment with U-251, 3.66 µM (inactive). The GI50 in the experiment on IGROV-1 was 4.06 µM (inactive); with SF-295, 2.42 µM (inactive).

Consider `CC1(C)COC(/C=C/C2=NC(C)(C)CO2)=N1`, for which the GI50 in the experiment with HCT-116 was 10.6 µM (inactive); with SK-OV-3, > 100 µM (inactive); in the experiment with OVCAR-3 it was 12.4 µM (inactive); in the experiment on A549 it was 42.9 µM (inactive); in the experiment on OVCAR-5, 20.4 µM (inactive); with SF-268, 24.3 µM (inactive). For the same molecule, the GI50 was 1.95 µM (inactive) in the experiment on SN12C; 21.2 µM (inactive) in the experiment on HT-29; 13.9 µM (inactive) in the experiment on KM12; 18.9 µM (inactive) with HOP-62; 5.89 µM (inactive) in the experiment with CAKI-1; 16.9 µM (inactive) with EKVX. Moreover, the GI50 in the experiment with COLO 205 was 14.4 µM (inactive); with HOP-92, 25 µM (inactive); in the experiment on UACC-62, 15.1 µM (inactive); in the experiment on SK-MEL-2 it was 26.5 µM (inactive); in the experiment on MOLT-4 it was 12.6 µM (inactive); with U-251 it was 21.1 µM (inactive). Moreover, the GI50 with IGROV-1 was 18.5 µM (inactive); in the experiment on SF-295, 42.2 µM (inactive).

`Cc1c2cc[n+](Cc3ccc(I)cc3)cc2c(C)c2c1[nH]c1ccccc12`: the GI50 in the experiment with HCT-116 was 0.574 µM (active); with SK-OV-3 it was 3.84 µM (inactive); in the experiment with OVCAR-3, 0.791 µM (active); with A549 it was 0.849 µM (active); with OVCAR-5, 1.37 µM (inactive); in the experiment on SF-268, 0.495 µM (active). Moreover, the GI50 in the experiment with SN12C was 0.548 µM (active); in the experiment on HT-29, 0.857 µM (active); with KM12, 0.402 µM (active); in the experiment on HOP-62 it was 0.778 µM (active); with CAKI-1, 0.714 µM (active); in the experiment with EKVX, 1.19 µM (inactive). Moreover, the GI50 with COLO 205 was 0.61 µM (active); in the experiment on HOP-92, 0.56 µM (active); with UACC-62, 1.12 µM (active); with SK-MEL-2, 0.614 µM (active); in the experiment on MOLT-4, 0.574 µM (active); with U-251 it was 0.21 µM (active). In addition, the GI50 in the experiment with IGROV-1 is 1.1 µM (active); in the experiment on SF-295, 0.296 µM (active).
